Numbers after ± are expanded uncertainties.
Conditions: Crystal; visual observation

SMILES	Normal melting temperature
Nc1ccccn1 [2-pyridinamine]	57.6 ± 0.6 °C
Nc1cccc(N)n1 [pyridine-2,6-diamine]	121.7 ± 1.2 °C
